Patent US11655235B2, “Pyrrolidine and piperidine compounds” (YUHAN CORPORATION, priority 2019, dated 2023)

Legend:
Format in all cases: biochemical
[1] = target: T1, recombinant human DPP9 (Homo sapiens, UniProt Q86TI2); experiment: DPP9 inhibition, fluorogenic substrate H-Gly-Pro-AMC; conditions: recombinant human DPP9
T1 construct: purchased R&D Systems
Summary of the method: (§1)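 Enzyme per reaction: 50 ng DPP9, 20 ng DPP8, 10 ng each DPP7 and PREP. Compounds were serially diluted (8 points, up to 0.5% DMSO) and incubated at 25 °C.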

[2] = target: T2, recombinant human PREP (Homo sapiens, UniProt P48147); experiment: PREP inhibition, fluorogenic substrate Z-Gly-Pro-AMC; conditions: Inhibitory Activity (IC50, nM) PREP, recombinant human PREP
T2 construct: purchased R&D System
T2 sequence (P48147 1-710): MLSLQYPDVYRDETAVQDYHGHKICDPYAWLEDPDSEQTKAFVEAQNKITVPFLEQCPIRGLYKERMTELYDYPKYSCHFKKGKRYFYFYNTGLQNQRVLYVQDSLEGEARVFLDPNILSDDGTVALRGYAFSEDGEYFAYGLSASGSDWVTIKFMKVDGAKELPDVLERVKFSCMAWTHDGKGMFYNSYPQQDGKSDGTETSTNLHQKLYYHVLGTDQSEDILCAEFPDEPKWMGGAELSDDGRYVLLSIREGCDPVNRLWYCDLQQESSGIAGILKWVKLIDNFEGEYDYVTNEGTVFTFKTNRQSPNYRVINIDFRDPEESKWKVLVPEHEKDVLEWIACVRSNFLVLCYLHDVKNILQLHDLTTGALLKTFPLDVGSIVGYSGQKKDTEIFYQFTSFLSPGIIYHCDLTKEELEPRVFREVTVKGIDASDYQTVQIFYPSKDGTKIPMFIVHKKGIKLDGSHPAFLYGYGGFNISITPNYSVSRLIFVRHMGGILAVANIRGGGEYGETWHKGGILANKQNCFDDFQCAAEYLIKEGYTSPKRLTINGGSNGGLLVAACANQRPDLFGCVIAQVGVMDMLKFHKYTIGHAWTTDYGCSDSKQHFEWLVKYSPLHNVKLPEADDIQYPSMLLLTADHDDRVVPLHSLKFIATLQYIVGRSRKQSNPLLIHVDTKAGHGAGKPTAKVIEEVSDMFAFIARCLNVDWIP
Summary of the method: as §1

[3] = target: T3, recombinant human DPP8 (Homo sapiens, UniProt Q6V1X1); experiment: DPP8 inhibition, fluorogenic substrate Z-Ala-Pro-AMC; conditions: recombinant human DPP8
T3 construct: purchased PBS Bioscience
T3 sequence (Q6V1X1 whole entry): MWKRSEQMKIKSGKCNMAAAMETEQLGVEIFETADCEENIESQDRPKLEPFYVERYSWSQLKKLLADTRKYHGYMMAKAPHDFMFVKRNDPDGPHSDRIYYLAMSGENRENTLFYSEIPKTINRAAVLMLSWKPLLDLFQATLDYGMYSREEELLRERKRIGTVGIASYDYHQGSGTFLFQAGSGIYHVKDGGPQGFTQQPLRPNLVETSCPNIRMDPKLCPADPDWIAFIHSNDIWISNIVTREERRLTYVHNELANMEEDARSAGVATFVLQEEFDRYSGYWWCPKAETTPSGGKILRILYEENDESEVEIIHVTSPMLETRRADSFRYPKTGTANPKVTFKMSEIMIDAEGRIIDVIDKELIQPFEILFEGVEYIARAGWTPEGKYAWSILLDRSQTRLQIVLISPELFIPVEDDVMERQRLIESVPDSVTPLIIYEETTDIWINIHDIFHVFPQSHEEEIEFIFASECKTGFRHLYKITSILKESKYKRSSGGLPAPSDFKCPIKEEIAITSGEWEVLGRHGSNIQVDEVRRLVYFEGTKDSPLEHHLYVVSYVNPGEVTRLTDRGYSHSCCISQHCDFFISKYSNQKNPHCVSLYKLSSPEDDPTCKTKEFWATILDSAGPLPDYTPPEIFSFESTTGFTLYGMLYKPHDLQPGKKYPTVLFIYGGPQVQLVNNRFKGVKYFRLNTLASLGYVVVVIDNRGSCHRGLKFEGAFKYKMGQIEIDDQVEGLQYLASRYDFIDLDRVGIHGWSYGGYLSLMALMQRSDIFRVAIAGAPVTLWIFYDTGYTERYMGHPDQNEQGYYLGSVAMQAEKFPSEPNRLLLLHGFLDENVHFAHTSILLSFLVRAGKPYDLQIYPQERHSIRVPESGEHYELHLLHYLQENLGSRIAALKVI
Summary of the method: as §1

[4] = target: T4, recombinant human DPP7 (Homo sapiens, UniProt Q9UHL4); experiment: DPP7 inhibition, fluorogenic substrate Lys-Pro-AMC; conditions: recombinant human DPP7
T4 construct: purchased R&D Systems
Summary of the method: as §1

[5] = target: DPP4 (Homo sapiens, UniProt P27487); experiment: DPP4 inhibition, fluorogenic substrate H-Gly-Pro-AMC; design: purchased R&D Systems; conditions: recombinant human DPP4
Chain of DPP4 (P27487 whole entry): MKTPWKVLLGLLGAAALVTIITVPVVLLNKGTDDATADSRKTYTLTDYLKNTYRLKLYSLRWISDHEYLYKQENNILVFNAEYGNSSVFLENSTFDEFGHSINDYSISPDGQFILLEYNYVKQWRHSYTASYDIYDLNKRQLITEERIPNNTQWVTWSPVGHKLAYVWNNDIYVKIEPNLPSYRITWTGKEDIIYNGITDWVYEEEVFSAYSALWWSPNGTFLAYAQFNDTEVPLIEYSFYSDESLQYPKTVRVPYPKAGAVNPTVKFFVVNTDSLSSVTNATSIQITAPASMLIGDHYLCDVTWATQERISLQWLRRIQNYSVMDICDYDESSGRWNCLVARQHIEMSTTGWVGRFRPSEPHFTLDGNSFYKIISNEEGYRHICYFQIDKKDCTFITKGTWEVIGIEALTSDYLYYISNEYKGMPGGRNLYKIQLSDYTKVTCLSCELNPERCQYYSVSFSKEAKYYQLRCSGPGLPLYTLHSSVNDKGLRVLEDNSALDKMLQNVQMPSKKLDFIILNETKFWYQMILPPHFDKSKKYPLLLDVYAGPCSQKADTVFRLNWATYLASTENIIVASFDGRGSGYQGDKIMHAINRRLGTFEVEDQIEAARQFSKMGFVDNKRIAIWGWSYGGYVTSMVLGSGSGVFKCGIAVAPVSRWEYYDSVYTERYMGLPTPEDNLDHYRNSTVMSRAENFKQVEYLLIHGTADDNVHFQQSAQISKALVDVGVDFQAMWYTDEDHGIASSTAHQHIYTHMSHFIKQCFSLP

[6] = target: T5, Recombinant human FAP (Homo sapiens, UniProt Q12884); experiment: FAP inhibition, fluorogenic substrate Z-Gly-Pro-AMC; conditions: recombinant human FAP, substrate Z-Gly-Pro-AMC
T5 construct: purchased R&D systems
T5 sequence (Q12884 1-760): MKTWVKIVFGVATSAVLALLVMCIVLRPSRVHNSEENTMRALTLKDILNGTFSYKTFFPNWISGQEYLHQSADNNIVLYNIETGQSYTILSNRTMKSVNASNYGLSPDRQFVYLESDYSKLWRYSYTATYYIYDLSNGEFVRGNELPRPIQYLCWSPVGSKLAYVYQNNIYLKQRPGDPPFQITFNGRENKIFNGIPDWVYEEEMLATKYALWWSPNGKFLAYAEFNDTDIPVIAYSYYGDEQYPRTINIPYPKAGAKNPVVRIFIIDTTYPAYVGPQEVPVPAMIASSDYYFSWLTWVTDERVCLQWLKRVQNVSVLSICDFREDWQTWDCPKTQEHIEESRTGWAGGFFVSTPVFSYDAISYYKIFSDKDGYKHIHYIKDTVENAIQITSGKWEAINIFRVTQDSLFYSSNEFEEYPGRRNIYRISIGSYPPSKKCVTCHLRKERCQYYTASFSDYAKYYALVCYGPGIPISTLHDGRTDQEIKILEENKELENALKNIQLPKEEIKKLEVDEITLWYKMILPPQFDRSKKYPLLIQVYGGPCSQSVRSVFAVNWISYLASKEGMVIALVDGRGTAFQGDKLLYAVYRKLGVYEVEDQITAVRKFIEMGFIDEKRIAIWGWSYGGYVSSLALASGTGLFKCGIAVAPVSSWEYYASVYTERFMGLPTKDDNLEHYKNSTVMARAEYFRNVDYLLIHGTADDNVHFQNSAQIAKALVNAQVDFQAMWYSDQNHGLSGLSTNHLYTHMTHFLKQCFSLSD
Summary of the method: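 Recombinant human FAP, 10 ng per reaction, in 50 mM Tris pH 7.5 with 1 M NaCl and 1 mg/ml BSA at 25° C; substrate Z-Gly-Pro-AMC, ≤0.1% DMSO. AMC fluorescence read at ex 380/em 460 nm; % signal-rate decrease vs no-inhibitor control, 8-point curves fitted to a four-parameter logistic for IC50.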

T1 sequence (Q86TI2 whole entry): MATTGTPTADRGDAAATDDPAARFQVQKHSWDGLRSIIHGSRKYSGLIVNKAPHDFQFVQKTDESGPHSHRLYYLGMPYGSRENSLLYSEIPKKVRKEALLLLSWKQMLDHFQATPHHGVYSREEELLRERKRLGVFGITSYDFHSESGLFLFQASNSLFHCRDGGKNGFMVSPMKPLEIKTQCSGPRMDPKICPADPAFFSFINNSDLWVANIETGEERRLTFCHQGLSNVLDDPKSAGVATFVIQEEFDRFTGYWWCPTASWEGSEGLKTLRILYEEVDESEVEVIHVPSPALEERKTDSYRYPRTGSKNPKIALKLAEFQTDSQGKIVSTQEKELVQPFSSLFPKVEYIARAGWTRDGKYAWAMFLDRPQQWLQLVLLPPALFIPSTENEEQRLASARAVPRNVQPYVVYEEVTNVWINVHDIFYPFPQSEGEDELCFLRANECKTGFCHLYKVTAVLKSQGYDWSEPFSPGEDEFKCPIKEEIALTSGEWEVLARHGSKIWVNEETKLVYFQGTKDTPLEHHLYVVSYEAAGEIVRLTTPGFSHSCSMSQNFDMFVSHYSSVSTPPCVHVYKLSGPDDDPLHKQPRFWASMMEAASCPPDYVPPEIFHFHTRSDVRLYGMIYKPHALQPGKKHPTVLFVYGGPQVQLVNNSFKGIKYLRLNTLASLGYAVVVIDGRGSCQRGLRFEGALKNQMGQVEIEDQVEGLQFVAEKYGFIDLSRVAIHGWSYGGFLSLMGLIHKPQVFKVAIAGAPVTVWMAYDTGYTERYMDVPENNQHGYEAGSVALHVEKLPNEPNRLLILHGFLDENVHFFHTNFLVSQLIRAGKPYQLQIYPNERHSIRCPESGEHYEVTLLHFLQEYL

Compound | IC50 [1] [nM] | IC50 [2] [nM] | IC50 [3] [nM] | IC50 [4] [nM] | IC50 [5] [nM] | IC50 [6] [nM]
CN(c1cc2ccccc2cn1)C1CCN(CC(=O)N2C[C@@H](F)C[C@H]2C#N)CC1 [Example 317, (2S,4S)-4-fluoro-1-[2-[4-[3-isoquinolyl(methyl)amino]-1-piperidyl]acetyl]pyrrolidine-2-carbonitrile] | 7070 | 299 | > 100000 | 1850 | > 10000 | 2.7
CN(c1ccc2ccncc2c1)C1CCN(CC(=O)N2C[C@@H](F)C[C@H]2C#N)CC1 [Example 319, (2S,4S)-4-fluoro-1-[2-[4-[7-isoquinolyl(methyl)amino]-1-piperidyl]acetyl]pyrrolidine-2-carbonitrile] | 5040 | 503 | 3820 | 1320 | > 10000 | 1.8
N#C[C@@H]1C[C@H](F)CN1C(=O)CN1CCC(Nc2cccc3sccc23)CC1 [Example 336, (2S,4S)-1-(2-(4-(benzo[b]thiophen-4-ylamino)piperidin-1-yl)acetyl)-4-fluoropyrrolidine-2-carbonitrile] | 6520 | 8500 | 11500 | 1190 | 7390 | 59.3
N#C[C@@H]1C[C@H](F)CN1C(=O)CN1CCC(Nc2ccnc3ccc(F)cc23)CC1 [Example 337, (2S,4S)-4-fluoro-1-[2-[4-[(6-fluoro-4-quinolyl)amino]-1-piperidyl]acetyl]pyrrolidine-2-carbonitrile] | 2290 | 2540 | 7880 | 571 | 8180 | 7.8
N#C[C@@H]1C[C@H](F)CN1C(=O)CN1CCC(Nc2ccnc3ccc(Cl)cc23)CC1 [Example 338, (2S,4S)-1-[2-[4-[(6-chloro-4-quinolyl)amino]-1-piperidyl]acetyl]-4-fluoro-pyrrolidine-2-carbonitrile] | 2940 | 1450 | 8330 | 809 | 6890 | 6.5
N#C[C@@H]1C[C@H](F)CN1C(=O)CN1CCC(Nc2cncc3ccccc23)CC1 [Example 339, (2S,4S)-4-fluoro-1-[2-[4-(4-isoquinolylamino)-1-piperidyl]acetyl]pyrrolidine-2-carbonitrile] | > 30000 | 3590 | > 10000 | 555 | 8790 | 11.4
N#C[C@@H]1C[C@H](F)CN1C(=O)CN1CCC(Nc2cccc3cnccc23)CC1 [Example 340, (2S,4S)-4-fluoro-1-[2-[4-(5-isoquinolylamino)-1-piperidyl]acetyl]pyrrolidine-2-carbonitrile] | 5310 | 7850 | 2400 | 523 | 6500 | 5.1
N#C[C@@H]1C[C@H](F)CN1C(=O)CN1CCC(Nc2cccc3ccncc23)CC1 [Example 342, (2S,4S)-4-fluoro-1-[2-[4-(8-isoquinolylamino)-1-piperidyl]acetyl]pyrrolidine-2-carbonitrile] | 5330 | 6650 | 39600 | 316 | 3260 | 14
N#C[C@@H]1C[C@H](F)CN1C(=O)CN1CCC(Nc2ccnc3c(C(F)(F)F)cccc23)CC1 [Example 346, (2S,4S)-4-fluoro-1-[2-[4-[[8-(trifluoromethyl)-4-quinolyl]amino]-1-piperidyl]acetyl]pyrrolidine-2-carbonitrile] | 3260 | 637 | 5960 | 339 | 2350 | 2.7
CN(c1cncc2ccoc12)C1CCN(CC(=O)N2C[C@@H](F)C[C@H]2C#N)CC1 [Example 350, (2S,4S)-4-fluoro-1-[2-[4-[furo[3,2-c]pyridin-7-yl(methyl)amino]-1-piperidyl]acetyl]pyrrolidine-2-carbonitrile] | 27500 | 625 | 17500 | 9080 | 7900 | 8.2
N#C[C@@H]1C[C@H](F)CN1C(=O)CN1CCC(Nc2cccc3c(Cl)nccc23)CC1 [Example 351, (2S,4S)-1-[2-[4-[(1-chloro-5-isoquinolyl)amino]-1-piperidyl]acetyl]-4-fluoro-pyrrolidine-2-carbonitrile] | 4530 | 3280 | 2810 | 842 | 6730 | 3.4
N#C[C@@H]1C[C@H](F)CN1C(=O)CN1CCC(Nc2ccc(Cl)c3cnccc23)CC1 [Example 353, (2S,4S)-1-[2-[4-[(8-chloro-5-isoquinolyl)amino]-1-piperidyl]acetyl]-4-fluoro-pyrrolidine-2-carbonitrile] | 2880 | 3570 | > 10000 | 1060 | 5890 | 4.5
Cc1cncc2cccc(NC3CCN(CC(=O)N4C[C@@H](F)C[C@H]4C#N)CC3)c12 [Example 354, (2S,4S)-4-fluoro-1-[2-[4-[(4-methyl-5-isoquinolyl)amino]-1-piperidyl]acetyl]pyrrolidine-2-carbonitrile] | 4940 | 2820 | 1780 | 428 | 2080 | 8.9
N#C[C@@H]1C[C@H](F)CN1C(=O)CN1CCC(Nc2ccc([N+](=O)[O-])c3cnccc23)CC1 [Example 356, (2S,4S)-4-fluoro-1-[2-[4-[(8-nitro-5-isoquinolyl)amino]-1-piperidyl]acetyl]pyrrolidine-2-carbonitrile] | 741 | 4980 | 953 | 2050 | 4020 | 3.7
N#C[C@@H]1C[C@H](F)CN1C(=O)CN1CCC(Nc2ccc(F)c3cnccc23)CC1 [Example 357, (2S,4S)-4-fluoro-1-[2-[4-[(8-fluoro-5-isoquinolyl)amino]-1-piperidyl]acetyl]pyrrolidine-2-carbonitrile] | 2800 | 4830 | 3600 | 1640 | 4710 | 3.8
COc1cc2nc(Cl)nc(NC3CCN(CC(=O)N4CCC[C@H]4C#N)CC3)c2cc1OC [Example 358, (2S)-1-[2-[4-[(2-chloro-6,7-dimethoxy-quinazolin-4-yl)amino]-1-piperidyl]acetyl]pyrrolidine-2-carbonitrile] | 64600 | 11800 | 30000 | 1440 | > 10000 | 3.7
Cc1cccc2c(NC3CCN(CC(=O)N4CCC[C@H]4C#N)CC3)nc(Cl)nc12 [Example 359, (2S)-1-[2-[4-[(2-chloro-8-methyl-quinazolin-4-yl)amino]-1-piperidyl]acetyl]pyrrolidine-2-carbonitrile] | 31300 | 6000 | 8220 | 971 | > 10000 | 2.3
